Data as given in ChEMBL document CHEMBL1201862, “PubChem BioAssay data set” (2004).
Activity calls are given as the source filed them.

What was measured:
[1] = biological target: Mitochondrial peptide methionine sulfoxide reductase (Bos taurus, UniProt P54149); format: functional;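 note: absorbance read-out, biochemical high-throughput dose-response screen for MsrA inhibitors, confirmatory; recombinant bovine MsrA coupled to E. coli TrxB with NADPH and selenocystamine; potency is for inhibitors of MsrA activity on DMSO substrate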
[2] = biological target: T1, Corticotropin-releasing factor receptor 2/Corticotropin-releasing factor-binding protein (Homo sapiens, UniProt P24387+Q13324); test: Dose Response confirmation of uHTS hits for small molecule antagonists of the CRF-binding protein and CRF-R2 receptor complex.; format: functional; settings: read-out: IC50_Mean
T1 sequence (Q13324 whole entry): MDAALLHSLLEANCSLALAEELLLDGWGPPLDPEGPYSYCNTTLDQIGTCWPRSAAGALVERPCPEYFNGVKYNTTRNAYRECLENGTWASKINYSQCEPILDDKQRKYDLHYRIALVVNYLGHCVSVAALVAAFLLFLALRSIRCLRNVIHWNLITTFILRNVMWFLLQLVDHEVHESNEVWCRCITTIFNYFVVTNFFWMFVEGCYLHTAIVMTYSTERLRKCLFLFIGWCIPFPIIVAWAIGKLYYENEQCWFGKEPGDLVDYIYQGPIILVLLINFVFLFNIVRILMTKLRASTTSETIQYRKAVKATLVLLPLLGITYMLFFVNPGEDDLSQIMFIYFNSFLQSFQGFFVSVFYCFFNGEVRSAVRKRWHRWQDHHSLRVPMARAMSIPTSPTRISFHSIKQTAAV
T1 sequence (P24387 whole entry): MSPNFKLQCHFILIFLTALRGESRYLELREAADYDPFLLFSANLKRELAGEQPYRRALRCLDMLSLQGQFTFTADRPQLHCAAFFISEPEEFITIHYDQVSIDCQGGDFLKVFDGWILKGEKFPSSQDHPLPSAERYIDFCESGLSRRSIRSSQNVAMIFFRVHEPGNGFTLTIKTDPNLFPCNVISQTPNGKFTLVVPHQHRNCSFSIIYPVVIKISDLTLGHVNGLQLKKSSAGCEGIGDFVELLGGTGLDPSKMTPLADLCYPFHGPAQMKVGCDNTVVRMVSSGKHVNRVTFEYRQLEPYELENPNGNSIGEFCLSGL

[3] = biological target: T1, Corticotropin-releasing factor receptor 2/Corticotropin-releasing factor-binding protein; test: activators of CRF receptor 2 with binding protein – uHTS hits, confirmation (AID 602473); format: functional; settings: read-out: EC50_Mean
[4] = CRF-BP/CRF-R2 complex antagonists, dose response, cell-based, uHTS hits, 384-well (AID 651639); format: functional, Homo sapiens; settings: read-out: IC50_Mean
[5] = biological target: T2, Replicative DNA helicase DnaB (Mycobacterium tuberculosis, UniProt P9WMR3); test: DnaB intein splicing inhibitors, dose response, biochemical, cell-free fluorescence (AID 449749); format: functional
T2 sequence (P9WMR3 whole entry): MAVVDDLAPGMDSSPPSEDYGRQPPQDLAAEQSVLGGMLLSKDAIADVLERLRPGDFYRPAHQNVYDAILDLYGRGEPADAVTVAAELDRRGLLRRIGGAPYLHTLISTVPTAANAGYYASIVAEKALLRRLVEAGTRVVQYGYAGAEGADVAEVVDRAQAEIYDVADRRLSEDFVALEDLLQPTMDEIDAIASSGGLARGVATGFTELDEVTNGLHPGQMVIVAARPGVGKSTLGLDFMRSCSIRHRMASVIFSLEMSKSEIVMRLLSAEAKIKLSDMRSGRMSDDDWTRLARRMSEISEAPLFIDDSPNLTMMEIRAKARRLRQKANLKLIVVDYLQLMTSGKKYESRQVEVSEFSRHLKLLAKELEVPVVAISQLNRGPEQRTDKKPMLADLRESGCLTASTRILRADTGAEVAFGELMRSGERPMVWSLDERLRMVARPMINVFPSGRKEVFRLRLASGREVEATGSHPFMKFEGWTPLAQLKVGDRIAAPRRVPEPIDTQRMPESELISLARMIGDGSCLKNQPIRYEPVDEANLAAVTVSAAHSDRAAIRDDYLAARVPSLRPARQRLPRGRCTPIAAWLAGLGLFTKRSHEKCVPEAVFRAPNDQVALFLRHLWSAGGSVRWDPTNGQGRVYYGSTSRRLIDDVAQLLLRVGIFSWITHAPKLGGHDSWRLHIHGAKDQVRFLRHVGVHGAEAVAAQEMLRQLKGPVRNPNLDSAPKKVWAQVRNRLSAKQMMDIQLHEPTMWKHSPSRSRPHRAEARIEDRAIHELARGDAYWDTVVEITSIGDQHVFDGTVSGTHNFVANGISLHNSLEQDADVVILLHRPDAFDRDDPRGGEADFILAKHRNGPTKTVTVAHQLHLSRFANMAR

[6] = biological target: T3, Protein RecA (Mycobacterium tuberculosis, UniProt P9WHJ3); test: Fluorescence Cell-Free Homogeneous Dose Retest to Identify Inhibitors of RecA-Intein Splicing Activity. [Related pubchem assays (depositor defined):AID2097, AID2223, AID489010, AID492950]; format: functional
T3 sequence (P9WHJ3 whole entry): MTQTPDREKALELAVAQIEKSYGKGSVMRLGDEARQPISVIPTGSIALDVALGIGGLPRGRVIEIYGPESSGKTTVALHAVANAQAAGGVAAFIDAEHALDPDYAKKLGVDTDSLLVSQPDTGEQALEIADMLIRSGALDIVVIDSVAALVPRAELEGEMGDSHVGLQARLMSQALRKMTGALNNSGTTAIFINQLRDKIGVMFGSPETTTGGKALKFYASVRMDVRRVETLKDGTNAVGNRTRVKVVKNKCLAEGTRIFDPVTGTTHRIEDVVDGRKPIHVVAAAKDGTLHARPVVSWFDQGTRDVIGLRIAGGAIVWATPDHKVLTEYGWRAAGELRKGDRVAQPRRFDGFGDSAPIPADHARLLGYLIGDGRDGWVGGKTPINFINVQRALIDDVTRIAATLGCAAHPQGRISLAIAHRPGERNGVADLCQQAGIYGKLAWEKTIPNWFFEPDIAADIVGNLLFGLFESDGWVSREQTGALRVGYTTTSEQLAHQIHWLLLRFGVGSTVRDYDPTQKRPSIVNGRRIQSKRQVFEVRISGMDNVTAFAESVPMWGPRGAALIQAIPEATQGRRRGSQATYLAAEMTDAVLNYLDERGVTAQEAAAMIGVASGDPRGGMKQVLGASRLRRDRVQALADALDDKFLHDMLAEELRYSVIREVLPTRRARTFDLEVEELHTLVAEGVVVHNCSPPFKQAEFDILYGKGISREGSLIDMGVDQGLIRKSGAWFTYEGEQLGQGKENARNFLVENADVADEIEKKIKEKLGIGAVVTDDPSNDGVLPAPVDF

[7] = biological target: T4, Sentrin-specific protease 8 (Homo sapiens, UniProt Q96LD8); format: functional;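 note: kinetic enzyme assay of SENP8 cleaving a Nedd8 protein substrate, dose-response confirmation of screening hits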
T4 sequence (Q96LD8 whole entry): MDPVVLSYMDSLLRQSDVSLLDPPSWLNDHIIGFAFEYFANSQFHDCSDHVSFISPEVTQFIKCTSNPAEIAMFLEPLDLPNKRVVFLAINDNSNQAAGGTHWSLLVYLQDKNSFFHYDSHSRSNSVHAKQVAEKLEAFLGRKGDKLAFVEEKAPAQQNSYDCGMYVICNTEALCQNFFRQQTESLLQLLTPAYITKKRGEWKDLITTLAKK

[8] = biological target: T5, Tyrosyl-DNA phosphodiesterase 2 (Homo sapiens, UniProt O95551); test: human TDP2 enzyme inhibitors, dose response, biochemical, epi absorbance, IC50 (AID 743297)
T5 sequence (O95551 whole entry): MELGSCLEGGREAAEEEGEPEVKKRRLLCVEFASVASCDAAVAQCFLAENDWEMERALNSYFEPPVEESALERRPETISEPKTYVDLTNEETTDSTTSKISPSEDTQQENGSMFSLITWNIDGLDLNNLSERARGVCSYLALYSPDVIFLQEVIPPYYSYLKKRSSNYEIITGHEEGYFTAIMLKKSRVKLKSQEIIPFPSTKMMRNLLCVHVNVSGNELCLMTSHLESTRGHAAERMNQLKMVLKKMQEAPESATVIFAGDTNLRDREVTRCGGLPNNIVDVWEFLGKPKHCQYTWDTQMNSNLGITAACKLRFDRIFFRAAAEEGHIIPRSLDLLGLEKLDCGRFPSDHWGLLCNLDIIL

Sequence of Mitochondrial peptide methionine sulfoxide reductase (P54149 whole entry): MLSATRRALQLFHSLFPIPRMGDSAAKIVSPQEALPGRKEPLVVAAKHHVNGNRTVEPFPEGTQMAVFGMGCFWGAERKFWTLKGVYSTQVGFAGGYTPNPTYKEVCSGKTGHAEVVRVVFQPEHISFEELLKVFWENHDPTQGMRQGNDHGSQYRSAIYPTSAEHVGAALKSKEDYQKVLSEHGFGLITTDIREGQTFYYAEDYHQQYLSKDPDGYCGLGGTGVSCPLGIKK

Cc1c(OCC(=O)N(C)C)ccc2c(-c3ccccc3)cc(=O)oc12
IC50 [1]: 93.6 µM (inactive)

Cc1noc(C)c1COC(=O)c1cc(C)n(-c2ccccc2)c1C
IC50 [2]: 6.04 µM (active)
EC50 [3]: > 53 µM (inactive)
IC50 [4]: > 20 µM (inactive)

COc1ccc(O)c(C(c2c(C)[nH][nH]c2=O)c2c(C)[nH][nH]c2=O)c1
AC50 [5]: 1.42 µM (active)
EC50 [6]: 1.17 µM (active)
IC50 [7]: 7.14 µM (active)
IC50 [8]: 33.6 µM (inactive)
